Laboratory results as given in US12662491B2 (Redona Therapeutics, Inc., priority 2020, dated 2026).
Like-named read-outs stand apart in the source and are kept apart here.

Target: T1, Zcchc11 enzyme (Homo sapiens, UniProt Q5TAX3)
T1 construct: made in house; host or cells: HEK293 cells (Zcchc11); E. coli Rosetta II (LIN28A)
T1 sequence (Q5TAX3 212-1420): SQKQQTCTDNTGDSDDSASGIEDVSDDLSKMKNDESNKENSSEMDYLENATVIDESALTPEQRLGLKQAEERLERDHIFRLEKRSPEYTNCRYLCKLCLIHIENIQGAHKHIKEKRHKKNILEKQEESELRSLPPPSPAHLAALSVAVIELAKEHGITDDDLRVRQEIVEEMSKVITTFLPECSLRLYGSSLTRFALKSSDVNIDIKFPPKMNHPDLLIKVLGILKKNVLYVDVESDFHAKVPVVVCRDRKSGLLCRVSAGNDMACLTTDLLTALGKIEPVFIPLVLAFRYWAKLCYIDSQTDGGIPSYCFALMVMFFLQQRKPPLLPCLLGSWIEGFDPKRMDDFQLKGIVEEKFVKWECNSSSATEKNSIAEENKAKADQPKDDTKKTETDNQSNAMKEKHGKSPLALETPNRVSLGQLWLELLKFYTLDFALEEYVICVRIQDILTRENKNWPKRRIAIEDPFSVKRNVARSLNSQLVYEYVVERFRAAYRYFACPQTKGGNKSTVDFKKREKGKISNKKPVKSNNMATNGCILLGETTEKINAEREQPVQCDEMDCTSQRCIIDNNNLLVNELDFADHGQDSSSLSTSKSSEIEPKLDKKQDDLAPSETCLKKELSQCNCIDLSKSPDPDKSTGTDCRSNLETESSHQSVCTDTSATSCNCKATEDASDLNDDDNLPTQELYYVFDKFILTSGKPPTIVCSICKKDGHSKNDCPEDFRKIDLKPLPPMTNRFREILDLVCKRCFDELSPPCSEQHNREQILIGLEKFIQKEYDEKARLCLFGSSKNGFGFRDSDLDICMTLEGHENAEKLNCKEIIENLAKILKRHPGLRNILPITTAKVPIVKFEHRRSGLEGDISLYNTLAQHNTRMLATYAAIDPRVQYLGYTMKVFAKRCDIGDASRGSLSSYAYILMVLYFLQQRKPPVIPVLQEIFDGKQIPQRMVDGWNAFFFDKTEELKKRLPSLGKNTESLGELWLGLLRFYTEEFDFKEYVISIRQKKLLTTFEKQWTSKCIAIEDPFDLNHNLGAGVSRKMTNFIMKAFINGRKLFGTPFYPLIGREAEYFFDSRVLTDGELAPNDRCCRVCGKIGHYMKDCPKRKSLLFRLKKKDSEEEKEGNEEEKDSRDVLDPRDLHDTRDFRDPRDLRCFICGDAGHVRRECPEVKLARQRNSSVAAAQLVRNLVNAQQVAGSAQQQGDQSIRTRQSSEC
Assay: TUTase assay (Zcchc11 assay, Lin28a-dependent polyuridylation of pre-let-7)
Format: biochemical
Settings: read-out: Potency Lin28a-dep Z11 IC50
How it was run: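 HEK293-expressed human Zcchc11 (residues 212-1420, 0.2 nM) with 10 nM LIN28A and 2 nM 5′-fluorescein pre-let-7, preincubated 30 min at room temperature, pH 7.3. Started with 5 uM UTP; poly(U) tails quenched by 3′-rhodamine A20 probe, read kinetically. IC50 from early-rate four-parameter fit; no-UTP wells define 0%.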

[1] = Lin28a-dependent Zcchc11 (Z11) TUTase assay
[2] = Lin28a-dependent Zcchc11 (Z11) TUTase activity
[3] = LIN28A 10 nM, Zcchc11 0.2 nM, 5′-fluorescein pre-let-7 miRNA 2 nM, UTP 5 uM, room temperature, 30 minutes pre-incubation

SMILES | IC50 [1] | IC50 [2] | also measured
CN(C)C1CN(c2ccc(-n3cc(C(=O)O)c(=O)c4cc(Cl)c(N5CCC[C@@H]5COc5nc(OC(C)(C)C)ccc5Cl)cc43)cn2)C1 [Example 658, (R)-7-(2-(((6-(tert-butoxy)-3-chloropyridin-2-yl)oxy)methyl)pyrrolidin-1-yl)-6-chloro-1-(6-(3-(dimethylamino)azetidin-1-yl)pyridin-3-yl)-4-oxo-1,4-dihydroquinoline-3-carboxylic acid] | ≤ 1000 nM |  | 
O=C(O)c1cn(-c2cc(F)cc(F)c2)c2cc(N3CCC[C@@H]3COc3ccccn3)c(F)cc2c1=O [Compound 144, (R)-1-(3,5-difluorophenyl)-6-fluoro-4-oxo-7-(2-((pyridin-2-yloxy)methyl)pyrrolidin-1-yl)-1,4-dihydro-quinoline-3-carboxylic acid] |  | 1000 to 10000 nM | 
CN(C)C1CN(c2ccc(-n3cc(C(=O)O)c(=O)c4cc(Cl)c(N5CCC[C@]5(C)COc5ncccc5Cl)cc43)cn2)C1 [Example 627, (R)-6-chloro-7-(2-(((3-chloropyridin-2-yl)oxy)methyl)-2-methylpyrrolidin-1-yl)-1-(6-(3-(dimethylamino)azetidin-1-yl)pyridin-3-yl)-4-oxo-1,4-dihydroquinoline-3-carboxylic acid] | ≤ 1000 nM |  | 
Cc1cccnc1OC[C@H]1CCCN1c1cc2c(cc1Cl)c(=O)c(C(=O)O)cn2C1CN(C)C1 [Example 458, (R)-6-chloro-1-(1-methylazetidin-3-yl)-7-(2-(((3-methylpyridin-2-yl)oxy)methyl)pyrrolidin-1-yl)-4-oxo-1,4-dihydroquinoline-3-carboxylic acid] | 1000 to 10000 nM |  | 
O=C(O)c1cn(-c2ccccn2)c2cc(N3CCC[C@@H]3COc3ncccc3Cl)c(Cl)cc2c1=O [Example 499, (R)-6-chloro-7-(2-(((3-chloropyridin-2-yl)oxy)methyl)pyrrolidin-1-yl)-4-oxo-1-(pyridin-2-yl)-1,4-dihydroquinoline-3-carboxylic acid] | ≤ 1000 nM |  | 
O=C(O)c1cn(-c2ccc(CO)cc2)c2cc(N3CCC[C@@H]3COc3ccccn3)c(F)cc2c1=O [Compound 162, (R)-6-fluoro-1-(4-(hydroxy-methyl)phenyl)-4-oxo-7-(2-((pyridin-2-yloxy)methyl)pyrrolidin-1-yl)-1,4-dihydro-quinoline-3-carboxylic acid] |  | ≤ 1000 nM | 
COc1ccc(Cl)c(OCC23CC(CN2c2cc4c(cc2Cl)c(=O)c(C(=O)O)cn4-c2ccc(N)nc2)C3)n1 [Compound 176, 1-(6-aminopyridin-3-yl)-6-chloro-7-(1-[[(3-chloro-6-methoxy-pyridin-2-yl)oxy]methyl]-2-azabicyclo [2.1.1]hexan-2-yl)-4-oxoquinoline-3-carboxylic acid] |  | 1000 to 10000 nM | 
CN(C)C1CN(c2ccc(-n3cc(C(=O)O)c(=O)c4cc(Cl)c(N5C6CC6C[C@@H]5COc5ccccn5)cc43)cn2)C1 (stereo partly drawn) [Example 619, 6-chloro-1-(6-(3-(dimethylamino)azetidin-1-yl)pyridin-3-yl)-4-oxo-7-((3R)-3-((pyridin-2-yloxy)methyl)-2-azabicyclo[3.1.0]hexan-2-yl)-1,4-dihydroquinoline-3-carboxylic acid] | ≤ 1000 nM |  | 
O=C(O)c1cn(C2CC2)c2c(F)c(N3CCC[C@@H]3COc3cccnc3)c(F)cc2c1=O [Example 357, (R)-1-cyclopropyl-6,8-difluoro-4-oxo-7-(2-((pyridin-3-yloxy)methyl)pyrrolidin-1-yl)-1,4-dihydro-quinoline-3-carboxylic acid] | 1000 to 10000 nM |  | 
CN(C)C1CN(c2ccc(-n3cc(C(=O)O)c(=O)c4cc(F)c(N5CC[C@@H](F)[C@@H]5COc5ncccc5Cl)cc43)cn2)C1 [Example 671, 7-((2S,3R)-2-(((3-chloropyridin-2-yl)oxy)methyl)-3-fluoropyrrolidin-1-yl)-1-(6-(3-(dimethylamino)azetidin-1-yl)pyridin-3-yl)-6-fluoro-4-oxo-1,4-dihydroquinoline-3-carboxylic acid] | ≤ 1000 nM |  | 
O=C(O)c1cn(-c2cnccn2)c2cc(N3C[C@@H](F)C[C@@H]3COc3ncccc3Cl)c(Cl)cc2c1=O [Example 41, 6-chloro-7-[(2R,4S)-2-{[(3-chloropyridin-2-yl)oxy]methyl}-4-fluoropyrrolidin-1-yl]-4-oxo-1-(pyrazin-2-yl)-1,4-dihydroquinoline-3-carboxylic acid] |  |  | IC50 [3]: ≤ 1000 nM
CN(C)C1CN(c2ccc(-n3cc(C(=O)O)c(=O)c4cc(F)c(N5CCC[C@@H]5COc5ncccc5Cl)cc43)cn2)C1 [Compound 222, 7-[(2R)-2-[[(3-chloropyridin-2-yl)oxy]methyl]pyrrolidin-1-yl]-1-[6-[3-(dimethyl-amino)azetidin-1-yl]pyridin-3-yl]-6-fluoro-4-oxoquinoline-3-carboxylic acid] |  | ≤ 1000 nM | 
O=C(O)c1cn(-c2ccc(Cl)cc2)c2cc(N3CCC[C@@H]3COc3ccccn3)c(F)cc2c1=O [Example 377, (R)-1-(4-chlorophenyl)-6-fluoro-4-oxo-7-(2-((pyridin-2-yloxy)methyl)pyrrolidin-1-yl)-1,4-dihydroquinoline-3-carboxylic acid] | ≤ 1000 nM |  | 
Cc1cccnc1OC[C@H]1CCCN1c1c(F)cc2c(=O)c(C(=O)O)cn(-c3ccc(O)cc3F)c2c1F [Example 20, (R)-6,8-difluoro-1-(2-fluoro-4-hydroxyphenyl)-7-(2-(((3-methylpyridin-2-yl)oxy)methyl)pyrrolidin-1-yl)-4-oxo-1,4-dihydroquinoline-3-carboxylic acid] |  |  | IC50 [3]: ≤ 1000 nM
CN(C)C1CN(c2ccc(-n3cc(C(=O)O)c(=O)c4cc(Cl)c(N5CC(C6CCC6)C[C@@H]5COc5ncccc5Cl)cc43)cn2)C1 (mixture of isomers) [Compound 205, rac-6-chloro-7-((2R)-2-((3-chloropyridin-2-yl)oxy)methyl)-4-cyclobutyl-pyrrolidin-1-yl)-1-(6-(3-(dimethyl-amino)azetidin-1-yl)pyridin-3-yl)-4-oxo-1,4-dihydro-quinoline-3-carboxylic acido-quinoline-3-carboxylic acid] |  | ≤ 1000 nM | 
CN(C)C1CN(c2cc(-n3cc(C(=O)O)c(=O)c4cc(Cl)c(N5CCC[C@@H]5COc5ncccc5Cl)nc43)ccn2)C1 [Example 544, (R)-6-chloro-7-(2-(((3-chloropyridin-2-yl)oxy)methyl)pyrrolidin-1-yl)-1-(2-(3-(dimethylamino)azetidin-1-yl)pyridin-4-yl)-4-oxo-1,4-dihydro-1,8-naphthyridine-3-carboxylic acid] | ≤ 1000 nM |  | 
COc1ccnc(OC[C@H]2C[C@H]3C[C@H]3N2c2cc3c(cc2F)c(=O)c(C(=O)O)cn3-c2ccc(N3CC(N(C)C)C3)nc2)c1Cl [Example 673, 7-((1R,3R,5R)-3-(((3-chloro-4-methoxypyridin-2-yl)oxy)methyl)-2-azabicyclo[3.1.0]hexan-2-yl)-1-(6-(3-(dimethylamino)azetidin-1-yl)pyridin-3-yl)-6-fluoro-4-oxo-1,4-dihydroquinoline-3-carboxylic acid] | ≤ 1000 nM |  | 
O=C(O)c1cn(-c2ccc(C3CNC3)nc2)c2cc(N3CCC[C@@H]3COc3ncccc3Cl)c(Cl)cc2c1=O [Example 606, (R)-1-(6-(azetidin-3-yl)pyridin-3-yl)-6-chloro-7-(2-(((3-chloropyridin-2-yl)oxy)methyl)pyrrolidin-1-yl)-4-oxo-1,4-dihydroquinoline-3-carboxylic acid] | ≤ 1000 nM |  | 
COc1ccc(-n2cc(C(=O)O)c(=O)c3cc(F)c(N4CCC[C@@H]4COc4ccccn4)cc32)cc1 [Compound 147, (R)-6-fluoro-1-(4-methoxy-phenyl)-4-oxo-7-(2-((pyridin-2-yloxy)methyl)pyrrolidin-1-yl)-1,4-dihydro-quinoline-3-carboxylic acid] |  | ≤ 1000 nM | 
Cc1cccc(-n2cc(C(=O)O)c(=O)c3cc(F)c(N4CCC[C@@H]4COc4ccccn4)cc32)c1 [Compound 155, (R)-6-fluoro-4-oxo-7-(2-((pyridin-2-yloxy)methyl)pyrrolidin-1-yl)-1-(m-tolyl)-1,4-dihydro-quinoline-3-carboxylic acid] |  | ≤ 1000 nM | 
